Where “and” joins values, the source holds several entries; their conditions need not be identical. Equal entries are not always repeated.
Tests used:
[1] = molecular target: T1, human recombinant adrenergic α2A receptor (Homo sapiens, UniProt P08913); assay: Radioligand binding, adrenergic α2A ([3H]MK-912); conditions: for inhibition at 0.1 µM / Percentage inhibition of ligand binding, Adrenergic α2A: compound at 0.1 μM; for inhibition at 0.1 µM / Percentage inhibition of ligand binding, Adrenergic α2A / inhibition at 0.03 µM: [3H]MK-912, repeat assays, each datapoint shown; for inhibition at 0.1 µM / inhibition at 0.03 µM: read-out: Percentage inhibition of ligand binding, Adrenergic α2A; for Percentage inhibition of ligand binding, Adrenergic α2A: 0.1 µM; for inhibition at 0.03 µM: compound at 0.03 μM
T1 construct: expressed in transfected cells; host or cells: insect Sf9 cells
T1 sequence (P08913 1-465): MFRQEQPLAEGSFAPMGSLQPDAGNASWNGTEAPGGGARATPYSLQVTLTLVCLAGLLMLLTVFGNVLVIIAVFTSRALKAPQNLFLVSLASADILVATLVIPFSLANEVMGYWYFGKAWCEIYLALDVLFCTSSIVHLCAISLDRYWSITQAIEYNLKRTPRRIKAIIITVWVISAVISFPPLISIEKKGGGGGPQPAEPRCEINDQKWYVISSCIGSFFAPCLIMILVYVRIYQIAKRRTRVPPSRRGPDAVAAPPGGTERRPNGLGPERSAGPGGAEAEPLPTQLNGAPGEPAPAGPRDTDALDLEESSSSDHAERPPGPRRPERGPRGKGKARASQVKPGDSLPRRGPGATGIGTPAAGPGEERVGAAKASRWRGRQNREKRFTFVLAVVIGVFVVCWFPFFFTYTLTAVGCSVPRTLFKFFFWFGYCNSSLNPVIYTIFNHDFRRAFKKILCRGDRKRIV
Outline: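 Displacement of 1 nM [3H]MK-912 from receptor produced in insect Sf9 cells was measured after 60 min at 25 °C. Readout: percent inhibition of specific binding.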

[2] = molecular target: T2, human recombinant adrenergic α2B receptor (Homo sapiens, UniProt P18089); assay: Radioligand binding, adrenergic α2B ([3H]Rauwolscine); conditions: for Percentage inhibition of ligand binding, Adrenergic α2B / inhibition at 0.03 µM: [3H]Rauwolscine, repeat assays, each datapoint shown; for Ki: read-out: Ki α2B; for inhibition at 0.03 µM: read-out: Percentage inhibition of ligand binding, Adrenergic α2B
T2 construct: expressed in transfected cells; host or cells: CHO-K1
T2 sequence (P18089 1-450): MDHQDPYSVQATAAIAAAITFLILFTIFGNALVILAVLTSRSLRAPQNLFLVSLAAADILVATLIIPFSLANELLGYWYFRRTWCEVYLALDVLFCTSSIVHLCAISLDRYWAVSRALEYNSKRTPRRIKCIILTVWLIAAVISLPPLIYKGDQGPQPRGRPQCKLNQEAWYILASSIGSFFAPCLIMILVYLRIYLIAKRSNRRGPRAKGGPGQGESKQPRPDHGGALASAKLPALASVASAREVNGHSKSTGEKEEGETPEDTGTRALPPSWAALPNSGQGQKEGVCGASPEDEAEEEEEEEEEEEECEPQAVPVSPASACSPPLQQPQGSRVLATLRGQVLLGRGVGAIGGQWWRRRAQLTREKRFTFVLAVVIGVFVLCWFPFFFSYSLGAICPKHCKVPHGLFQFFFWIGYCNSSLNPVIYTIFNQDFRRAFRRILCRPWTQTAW
Outline: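 Values are percent inhibition of specific radioligand binding. The receptor, expressed in CHO-K1 cells, was exposed to 2.5 nM [3H]Rauwolscine at 25° C for 60 min, with 10 μM Prazosin marking non-specific binding.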

[3] = molecular target: T3, rat adrenergic α1B receptor (Rattus norvegicus, UniProt P15823); assay: Radioligand binding, adrenergic α1B ([3H]Prazosin); conditions: [3H]Prazosin, repeat assays, each datapoint shown; for Percentage inhibition of ligand binding, Adrenergic α1B / inhibition at 0.1 µM: compound at 0.1 μM; for Percentage inhibition of ligand binding, Adrenergic α1B: 0.1 µM; for inhibition at 0.03 µM: compound at 0.03 μM; for inhibition at 0.03 µM / inhibition at 0.1 µM: read-out: Percentage inhibition of ligand binding, Adrenergic α1B
T3 construct: rat adrenergic α1B receptor obtained from Wistar Rat liver; from tissue; host or cells: Wistar rat liver
T3 sequence (P15823 1-515): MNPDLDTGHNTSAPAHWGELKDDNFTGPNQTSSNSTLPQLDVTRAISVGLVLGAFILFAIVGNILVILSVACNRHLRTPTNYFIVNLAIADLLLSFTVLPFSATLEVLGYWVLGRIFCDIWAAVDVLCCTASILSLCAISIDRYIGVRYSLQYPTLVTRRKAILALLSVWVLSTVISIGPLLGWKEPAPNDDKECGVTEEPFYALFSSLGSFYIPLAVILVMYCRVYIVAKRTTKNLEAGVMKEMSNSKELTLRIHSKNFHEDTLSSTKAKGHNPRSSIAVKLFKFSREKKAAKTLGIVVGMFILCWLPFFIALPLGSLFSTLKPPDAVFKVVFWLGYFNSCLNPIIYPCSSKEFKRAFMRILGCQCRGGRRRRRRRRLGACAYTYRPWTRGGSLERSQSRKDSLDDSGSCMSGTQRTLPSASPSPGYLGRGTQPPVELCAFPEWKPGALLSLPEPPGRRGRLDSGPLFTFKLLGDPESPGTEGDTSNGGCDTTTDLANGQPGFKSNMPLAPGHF
Outline: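 Rat α1B receptor from Wistar rat liver was incubated with 0.25 nM [3H]prazosin for 60 min at 25 °C in 50 mM Tris-HCl, pH 7.4, 0.5 mM EDTA. Non-specific binding was defined with 10 μM phentolamine. Bound radioligand was measured by filtration and counting, reported as percent inhibition of specific binding.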

SMILES: Cc1ccc2c(c1)c1c(n2CC(N)c2ccncc2)CCN(C)C1 (single isomer, unassigned) [27b, 2-(1,2,3,4-tetrahydro-2,8-dimethylpyrido[4,3-b]indol-5-yl)-1-(pyridin-4-yl)ethanamine]
- Ki [1]: 3710 nM
- Percentage inhibition of ligand binding, Adrenergic α2B ([2]; compound at 0.03 μM, 0.03 µM): 30% and 36%
- Percentage inhibition of ligand binding, Adrenergic α2B ([2]; compound at 0.1 μM, 0.1 µM): 48%
- Ki [2]: 43.4 nM
- Percentage inhibition of ligand binding, Adrenergic α1B [3]: 6% and 16%

SMILES: CN1CCc2c(n(CC(C)(O)c3cccnc3)c3ccc(Cl)cc23)C1 (single isomer, unassigned) [28a]
- inhibition at 0.1 µM [1]: 28%
- Percentage inhibition of ligand binding, Adrenergic α2B ([2]; compound at 0.03 μM, 0.03 µM): 96%
- Percentage inhibition of ligand binding, Adrenergic α1B [3]: 41%

SMILES: CN1CCc2c(n(CC(C)(O)c3cccnc3)c3ccc(Cl)cc23)C1 (single isomer, unassigned) [28b]
- Percentage inhibition of ligand binding, Adrenergic α2A [1]: 24%
- Percentage inhibition of ligand binding, Adrenergic α2B ([2]; compound at 0.03 μM, 0.03 µM): 37%
- Percentage inhibition of ligand binding, Adrenergic α1B [3]: 20%

SMILES: Cc1ccc2c(c1)c1c(n2CC(C)(O)c2ccc(C)nc2)CCN(C)C1 (single isomer, unassigned) [29a]
- Ki [1]: 77.2 nM
- inhibition at 0.03 µM [1]: 16%
- Percentage inhibition of ligand binding, Adrenergic α2A [1]: 39%
- inhibition at 0.1 µM [1]: 35%
- Percentage inhibition of ligand binding, Adrenergic α2B ([2]; compound at 0.03 μM, 0.03 µM): 100%
- inhibition at 0.03 µM ([2]; compound at 0.03 μM): 98%
- Ki [2]: 1.09 nM
- inhibition at 0.03 µM [3]: 19%
- Percentage inhibition of ligand binding, Adrenergic α1B [3]: 38%
- inhibition at 0.1 µM [3]: 32%

SMILES: Cc1ccc2c(c1)c1c(n2CC(O)c2ccc(F)cc2)CCN(C)C1 (single isomer, unassigned) [30b]
- Ki [1]: 14.2 nM
- inhibition at 0.03 µM [1]: 42%
- Percentage inhibition of ligand binding, Adrenergic α2A [1]: 75%
- inhibition at 0.1 µM [1]: 74%
- Percentage inhibition of ligand binding, Adrenergic α2B ([2]; compound at 0.03 μM, 0.03 µM): 102%
- inhibition at 0.03 µM ([2]; compound at 0.03 μM): 100%
- Ki [2]: 1.13 nM
- inhibition at 0.03 µM [3]: 68%
- Percentage inhibition of ligand binding, Adrenergic α1B [3]: 91%
- inhibition at 0.1 µM [3]: 89%

SMILES: CN1CCc2c(c3cc(Cl)ccc3n2CC(C)(O)c2cccnc2)C1 (single isomer, unassigned) [31a]
- Ki [1]: 167 nM
- inhibition at 0.03 µM [1]: 11%
- Percentage inhibition of ligand binding, Adrenergic α2A [1]: 27%
- inhibition at 0.1 µM [1]: 19%
- Percentage inhibition of ligand binding, Adrenergic α2B ([2]; compound at 0.03 μM, 0.03 µM): 97%
- inhibition at 0.03 µM ([2]; compound at 0.03 μM): 93%
- Ki [2]: 1.58 nM
- inhibition at 0.03 µM [3]: 16%
- Percentage inhibition of ligand binding, Adrenergic α1B [3]: 28%
- inhibition at 0.1 µM [3]: 25%

SMILES: CCC1c2c(c3cc(C)ccc3n2CC(O)c2ccncc2)C2CCN1C2 (single isomer, unassigned) [36a]
- Percentage inhibition of ligand binding, Adrenergic α2A [1]: 8%
- Percentage inhibition of ligand binding, Adrenergic α2B ([2]; compound at 0.03 μM, 0.03 µM): 33%
- inhibition at 0.1 µM [3]: 14%

SMILES: CCC1c2c(c3cc(C)ccc3n2CC(O)c2ccncc2)C2CCN1C2 (single isomer, unassigned) [36b]
- Percentage inhibition of ligand binding, Adrenergic α2A [1]: 0%
- Percentage inhibition of ligand binding, Adrenergic α2B ([2]; compound at 0.03 μM, 0.03 µM): −1%
- Percentage inhibition of ligand binding, Adrenergic α1B [3]: 11%

SMILES: OC(Cn1c2c(c3cccnc31)CN1CCCC1C2)c1ccncc1 (single isomer, unassigned) [37a]
- Percentage inhibition of ligand binding, Adrenergic α2A [1]: 18%
- Percentage inhibition of ligand binding, Adrenergic α2B ([2]; compound at 0.03 μM, 0.03 µM): 2%
- Percentage inhibition of ligand binding, Adrenergic α1B [3]: −5%

SMILES: OC(Cn1c2c(c3cccnc31)CN1CCCC1C2)c1ccncc1 (single isomer, unassigned) [37b]
- Percentage inhibition of ligand binding, Adrenergic α2A [1]: −20%
- Percentage inhibition of ligand binding, Adrenergic α2B ([2]; compound at 0.03 μM, 0.03 µM): −3%
- Percentage inhibition of ligand binding, Adrenergic α1B [3]: −10%

SMILES: OC(Cn1c2c(c3cccnc31)CN1CCCC1C2)c1ccncc1 (single isomer, unassigned) [37c]
- Percentage inhibition of ligand binding, Adrenergic α2A [1]: 6%
- Percentage inhibition of ligand binding, Adrenergic α2B ([2]; compound at 0.03 μM, 0.03 µM): 0%
- Percentage inhibition of ligand binding, Adrenergic α1B [3]: 2%

SMILES: OC(Cn1c2c(c3cccnc31)CN1CCCC1C2)c1ccncc1 (single isomer, unassigned) [37d]
- Percentage inhibition of ligand binding, Adrenergic α2A [1]: 8%
- Percentage inhibition of ligand binding, Adrenergic α2B ([2]; compound at 0.03 μM, 0.03 µM): −3%
- Percentage inhibition of ligand binding, Adrenergic α1B [3]: 2%

SMILES: Cc1ccc2c(c1)c1c(n2CC(O)c2ccncc2)C(C)N2CCC1C2 (single isomer, unassigned) [38a]
- Percentage inhibition of ligand binding, Adrenergic α2A [1]: 14%
- Percentage inhibition of ligand binding, Adrenergic α2B ([2]; compound at 0.03 μM, 0.03 µM): 35%
- Percentage inhibition of ligand binding, Adrenergic α1B [3]: 11%

SMILES: Cc1ccc2c(c1)c1c(n2CC(O)c2ccncc2)C(C)N2CCC1C2 (single isomer, unassigned) [38b]
- Percentage inhibition of ligand binding, Adrenergic α2A [1]: −1%
- Percentage inhibition of ligand binding, Adrenergic α2B ([2]; compound at 0.03 μM, 0.03 µM): 17%
- Percentage inhibition of ligand binding, Adrenergic α1B [3]: 20%

SMILES: Cc1ccc2c(c1)c1c(n2CC(O)c2ccncc2)CCNC1 (single isomer, unassigned) [39b, 2-(8-methyl-1,2,3,4-tetrahydro-pyrido[4,3-b]indol-5-yl)-1-pyridin-4-yl-ethanol]
- inhibition at 0.1 µM [1]: 1%
- Percentage inhibition of ligand binding, Adrenergic α2B ([2]; compound at 0.03 μM, 0.03 µM): 28%
- inhibition at 0.1 µM [3]: 24%

SMILES: CN1CCc2c(c3ccc(C(F)(F)F)cc3n2CC(O)c2cccnc2)C1 (single isomer, unassigned) [40a]
- inhibition at 0.1 µM [1]: 7%
- inhibition at 0.03 µM ([2]; compound at 0.03 μM): 27%
- Percentage inhibition of ligand binding, Adrenergic α1B [3]: 2%

SMILES: CN1CCc2c(c3ccc(C(F)(F)F)cc3n2CC(O)c2cccnc2)C1 (single isomer, unassigned) [40b]
- Percentage inhibition of ligand binding, Adrenergic α2A [1]: 13%
- Percentage inhibition of ligand binding, Adrenergic α2B ([2]; compound at 0.03 μM, 0.03 µM): 29%
- Percentage inhibition of ligand binding, Adrenergic α1B [3]: −2%

SMILES: CN1CCc2c(n(CC(O)c3ccncc3)c3ccc(Cl)cc23)C1 (single isomer, unassigned) [41b]
- Percentage inhibition of ligand binding, Adrenergic α2A [1]: 8%
- Percentage inhibition of ligand binding, Adrenergic α2B ([2]; compound at 0.03 μM, 0.03 µM): 50%
- Percentage inhibition of ligand binding, Adrenergic α1B [3]: 50%

SMILES: CC(O)(Cn1c2c(c3cc(Cl)ccc31)CNCC2)c1ccncn1 (single isomer, unassigned) [42a, 1-(8-chloro-1,2,3,4-tetrahydro-pyrido[4,3-b]indol-5-yl)-2-pyrimidin-4-yl-propan-2-ol]
- Percentage inhibition of ligand binding, Adrenergic α2A [1]: 3%
- inhibition at 0.03 µM ([2]; compound at 0.03 μM): 29%
- inhibition at 0.1 µM [3]: 15%

SMILES: CC(O)(Cn1c2c(c3cc(Cl)ccc31)CNCC2)c1ccncn1 (single isomer, unassigned) [42b, 1-(8-chloro-1,2,3,4-tetrahydro-pyrido[4,3-b]indol-5-yl)-2-pyrimidin-4-yl-propan-2-ol]
- Percentage inhibition of ligand binding, Adrenergic α2A [1]: 12%
- Percentage inhibition of ligand binding, Adrenergic α2B ([2]; compound at 0.03 μM, 0.03 µM): 34%
- Percentage inhibition of ligand binding, Adrenergic α1B [3]: 19%

From patent publication US8791132B2, “Compounds and methods for treatment of hypertension” (Medivation Technologies, Inc., priority 2011, dated 2014)
